pIC50, pKi: −log10 of the molar value.

The source of these data is US20250326769A1, “HETEROAROMATIC MACROCYCLIC ETHER CHEMOTHERAPEUTIC AGENTS” (Nuvalent, Inc., priority 2022, published 2025).

Assay [1] deals with ALK I1171N/D1203N (Homo sapiens (Human), UniProt Q9UM73, D1203N/I1171N). The assay is described as follows: Biochemical kinase assay, ALK I1171N/D1203N. The conditions noted are these: apparent inhibitory constant, kinase domain, Morrison equation; read-out: ALK-I1171N-D1203N Ki^app. How it is done:
(§1) First, 250 nL of compound dissolved in DMSO (100-fold of the desired concentration) was dispensed into a 384-well plate. A 12.5 μL substrate solution containing ATP (2 mM) and fluorogenic phosphorylation substrate AQT0101 ([…] for ALK and ROS, AssayQuant) or AQT0104 (26 μM for TRKB, AssayQuant) in buffer (50 mM HEPES pH 7.5, […], 0.5 mM EGTA, 10 mM MgCl2) was added and mixed thoroughly. Then, a 12.5 μL kinase solution containing ALK (1.5 nM, Carna, 08-518), ALK I1171N/D1203N (4 nM, SignalChem, custom-made), ROS1 (0.6 nM, Carma, 08-163), ROS1-G2032R (0.5 nM, SignalChem, R14-121BG), or TRKB-wt (1.5 nM, SignalChem, N17-11G) kinase domains in buffer ([…] pH 7.5, 0.01% Brij-[…], 0.4 mg/mL BSA, 0.5 mM EGTA, and 10 mM MgCl2) was added and mixed thoroughly. The plate was sealed and read by SpectraMax Paradigm at λ=485 nm every 2 minutes for 120 minutes at 30° C. Initial rates of reaction (v) were calculated from the change in fluorescence intensity over time during the initial, linear portion of the reaction. Finally, apparent inhibitory constants (Ki^app) were determined from regression of v and I (inhibitor concentration) to Morrison Equation (E=enzyme concentration): […]
(§2) Compound potency can be interpreted by binning Ki^app values against the targets: bin A for high potency, Ki^app<50 nM; bin B for medium potency, 50 nM≤Ki^app<500 nM; and bin C for low potency, Ki^app≥500 nM. […] “nd” means not determined.

For assay [2], the target named is TRKB-wt (Homo sapiens (Human), UniProt Q16620). Put plainly: Biochemical kinase assay, TRKB-wt. The conditions noted are these: apparent inhibitory constant, kinase domain, Morrison equation; read-out: TRKB-wt Ki^app. How it is done:
as §1, §2

Assay [3] addresses Ba/F3 EML4-ALK v1 I1171N/D1203N (Homo sapiens (Human), UniProt Q9HC35+Q9UM73, D1203N/I1171N). Put plainly: Ba/F3 cell proliferation assay, EML4-ALK v1 I1171N/D1203N. In kind it is cell-based. The following applies: for pIC50: Ba/F3 stable cells, 72 hours, CellTiter-Glo. In outline: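 Viability read by CellTiter-Glo luminescence after 72 h exposure to a 3-fold compound dilution series, with IC50 from four-parameter logistic regression. Cells were Ba/F3 rendered IL-3-independent through retroviral expression of EML4-ALK v1 I1171N/D1203N, puromycin-selected.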
(In general: In ATP-based viability assays light output follows the ATP content of the culture.)

In assay [4] the target is Ba/F3 ETV6-TRKB (Homo sapiens, UniProt Q16620). Put plainly: Ba/F3 cell proliferation assay, ETV6-TRKB. In kind it is cell-based. The following applies: Ba/F3 stable cells, 72 hours, CellTiter-Glo; read-out: ETV6-TRKB IC50. In outline: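 Growth inhibition after 72 h compound exposure (3-fold series) was measured by CellTiter-Glo in IL-3-independent Ba/F3 cells stably expressing ETV6-TRKB. A four-parameter logistic fit of percent inhibition versus concentration gave IC50.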
Chain of Ba/F3 ETV6-TRKB (Q16620 32-822 limits assumed, change not shown): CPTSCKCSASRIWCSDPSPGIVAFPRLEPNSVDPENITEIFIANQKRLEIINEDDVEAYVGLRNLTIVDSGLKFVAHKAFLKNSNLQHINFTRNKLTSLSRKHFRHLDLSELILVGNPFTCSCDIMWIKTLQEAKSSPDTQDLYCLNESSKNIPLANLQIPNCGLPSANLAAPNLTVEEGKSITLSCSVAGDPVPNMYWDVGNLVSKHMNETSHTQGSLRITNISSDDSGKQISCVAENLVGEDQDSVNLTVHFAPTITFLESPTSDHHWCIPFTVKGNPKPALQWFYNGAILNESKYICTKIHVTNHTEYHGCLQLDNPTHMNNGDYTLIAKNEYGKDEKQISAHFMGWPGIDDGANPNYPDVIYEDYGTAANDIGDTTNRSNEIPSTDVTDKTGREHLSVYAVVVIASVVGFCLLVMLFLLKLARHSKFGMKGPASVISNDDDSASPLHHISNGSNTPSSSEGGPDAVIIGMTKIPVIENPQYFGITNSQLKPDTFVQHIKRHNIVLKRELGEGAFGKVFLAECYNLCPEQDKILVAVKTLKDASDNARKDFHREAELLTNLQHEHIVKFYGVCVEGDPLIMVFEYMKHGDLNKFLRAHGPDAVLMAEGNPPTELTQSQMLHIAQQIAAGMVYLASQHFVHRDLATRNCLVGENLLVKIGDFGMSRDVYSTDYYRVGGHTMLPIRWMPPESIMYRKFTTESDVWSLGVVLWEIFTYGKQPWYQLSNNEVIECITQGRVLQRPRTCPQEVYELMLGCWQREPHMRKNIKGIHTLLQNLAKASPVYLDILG

The mark [5] stands for this setting: TRKB selectivity, ratio of Ba/F3 IC50 values.

Chain of ALK I1171N/D1203N (Q9UM73 1116-1392 I1171N/D1203N): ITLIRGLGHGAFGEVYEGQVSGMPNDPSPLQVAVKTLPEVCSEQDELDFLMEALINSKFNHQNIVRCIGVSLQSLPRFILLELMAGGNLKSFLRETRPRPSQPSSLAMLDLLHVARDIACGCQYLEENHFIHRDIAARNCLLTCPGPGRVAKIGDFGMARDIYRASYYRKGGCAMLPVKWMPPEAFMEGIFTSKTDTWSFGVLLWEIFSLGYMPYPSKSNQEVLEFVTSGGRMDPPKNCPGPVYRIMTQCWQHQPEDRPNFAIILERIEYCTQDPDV
Chain of TRKB-wt (Q16620 538-807): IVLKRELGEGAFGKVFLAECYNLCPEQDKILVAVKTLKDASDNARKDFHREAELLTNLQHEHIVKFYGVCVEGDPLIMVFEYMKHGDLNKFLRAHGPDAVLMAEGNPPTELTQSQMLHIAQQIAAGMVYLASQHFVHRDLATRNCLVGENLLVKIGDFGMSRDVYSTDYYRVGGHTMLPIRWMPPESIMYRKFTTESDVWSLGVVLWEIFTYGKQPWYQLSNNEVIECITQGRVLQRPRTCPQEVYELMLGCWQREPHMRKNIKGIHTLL
Chain of Ba/F3 EML4-ALK v1 I1171N/D1203N (Q9UM73 other isoform, or with tags, fused parts or gaps I1171N/D1203N): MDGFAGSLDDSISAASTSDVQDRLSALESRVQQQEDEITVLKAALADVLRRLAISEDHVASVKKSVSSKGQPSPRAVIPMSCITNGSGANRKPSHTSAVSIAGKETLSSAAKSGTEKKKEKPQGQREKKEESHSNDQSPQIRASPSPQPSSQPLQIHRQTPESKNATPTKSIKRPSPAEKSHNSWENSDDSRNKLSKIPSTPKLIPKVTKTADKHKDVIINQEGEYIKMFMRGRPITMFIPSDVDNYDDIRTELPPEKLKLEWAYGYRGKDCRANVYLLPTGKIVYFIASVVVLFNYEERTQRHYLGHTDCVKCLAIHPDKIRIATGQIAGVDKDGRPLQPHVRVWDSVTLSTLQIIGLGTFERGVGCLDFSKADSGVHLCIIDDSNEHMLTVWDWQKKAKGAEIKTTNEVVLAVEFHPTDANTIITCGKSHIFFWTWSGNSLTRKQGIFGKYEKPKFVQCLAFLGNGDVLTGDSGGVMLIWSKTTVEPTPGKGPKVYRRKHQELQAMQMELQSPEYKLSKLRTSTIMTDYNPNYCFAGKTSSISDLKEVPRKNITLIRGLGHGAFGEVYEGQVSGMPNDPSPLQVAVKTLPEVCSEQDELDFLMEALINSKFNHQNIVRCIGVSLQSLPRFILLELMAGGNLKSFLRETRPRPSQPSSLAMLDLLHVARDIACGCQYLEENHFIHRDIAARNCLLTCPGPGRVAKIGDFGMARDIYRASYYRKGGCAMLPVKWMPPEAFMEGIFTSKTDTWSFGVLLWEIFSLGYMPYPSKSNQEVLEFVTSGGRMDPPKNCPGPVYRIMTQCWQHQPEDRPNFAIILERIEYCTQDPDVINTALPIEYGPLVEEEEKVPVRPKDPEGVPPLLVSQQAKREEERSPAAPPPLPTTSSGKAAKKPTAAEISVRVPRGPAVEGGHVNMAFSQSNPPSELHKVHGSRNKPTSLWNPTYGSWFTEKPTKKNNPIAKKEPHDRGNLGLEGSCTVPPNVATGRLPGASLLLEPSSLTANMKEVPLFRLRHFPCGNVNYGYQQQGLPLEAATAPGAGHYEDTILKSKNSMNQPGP

The pKi is the Ki on a negative log10 scale, so that one unit is a factor of ten. Usually pIC50 stands for −log10 of the IC50, conventionally taken in molar units. Take `CC1CCCN1C(=O)c1nn(CC2CC2)c2c1Cc1cn(C)nc1-c1ccc(F)cc1[C@@H](C)Oc1cc-2cnc1N` (stereo partly drawn) [Example 31, {(R)-22-amino-3-(cyclopropylmethyl)-16-fluoro-10-methyl-19-methyl-20-oxa-3,4,10,11,23-pentaazapentacyclo[19.3.1.0^2,^6.0^8,^12.0^13,^18]pentacosa-1(24),2(6),4,8,11, 13,15,17,21(25),22-decaen-5-yl}(2-methyl-1-pyrrolidinyl)methanone]: the values for the pKi in assay [1] and in assay [2] were > 7.30 and ≤ 6.30, respectively. Further, the pIC50 was 7.30 to 10.00 in assay [3] and < 6.30 in assay [4]. For the same compound, the “ETV6-TRKB / EML4-ALK v1 I1171N/D1203N” value in assay [3] (setting [5]) was “A (bin A for very high selectivity, ratio≥30-fold)”.

Turning to `C[C@H]1Oc2cc(cnc2N)-c2c(c(C(=O)N(C)C)nn2CC2CCC2)Cc2cn(C)nc2-c2ccc(F)cc21` [Example 33, (19R)-22-amino-3-(cyclobutylmcthyl)-16-fluoro-N,N,10,19-tetramethyl-20-oxa-3,4,10,11,23-pentaazapentacyclo[19.3.1.0^2,^6.0^8,^12.0^13,^18]pentacosa-1(24),2(6),4,8,11,13,15,17,21(25),22-decaene-5-carboxamide], the results for the pKi in assay [1] and in assay [2] were > 7.30 and ≤ 6.30, respectively. In addition, the pIC50 is 6.30 to 7.30 in assay [3] and < 6.30 in assay [4]. Also, in assay [3] (setting [5]), the “ETV6-TRKB / EML4-ALK v1 I1171N/D1203N” value is given as “A (bin A for very high selectivity, ratio≥30-fold)”.

As for `CON(C)C(=O)c1nn(CC2CC2)c2c1Cc1cn(C)nc1-c1ccc(F)cc1[C@@H](C)Oc1cc-2cnc1N` [Example 34, N-methoxy-N-methyl-(R)-22-amino-3-(cyclopropylmethyl)-16-fluoro-10-methyl-19-methyl-20-oxa-3,4,10,11,23-pentaazapentacyclo[19.3.1.0^2,^6.0^8,^12.0^13,^18]pentacosa-1(24),2(6),4,8,11,13,15,17,21(25),22-decaene-5-carboxamide], the pKi in assay [1] was > 7.30; in assay [2], 6.30 to 7.30. The negative logarithm of the IC50 (pIC50) is 7.30 to 10.00 in assay [3] and < 6.30 in assay [4]. In addition, in assay [3] (setting [5]), the “ETV6-TRKB / EML4-ALK v1 I1171N/D1203N” value is listed as “B (bin B for high selectivity, ratio≥10-fold but<30)”.

`C[C@H]1Oc2cc(cnc2N)-c2c(c(C(=O)N(C)CC(F)(F)F)nn2CC2CC2)Cc2cn(C)nc2-c2ccc(F)cc21` [Example 36, (19R)-22-amino-3-(cyclopropylmethyl)-16-fluoro-N,10,19-trimethyl-N-(2,2,2-trifluoroethyl)-20-oxa-3,4,10,11,23-pentaazapentacyclo[19.3.1.0^2,^6.0^8,^12.0^13,^18]pentacosa-1(24),2(6),4,8,11,13,15,17,21(25),22-decaene-5-carboxamide]: the negative-log Ki (pKi) in assay [1] was > 7.30; in assay [2], ≤ 6.30. For the same compound, the pIC50 in assay [3] is 6.30 to 7.30; in assay [4], < 6.30. Further, the “ETV6-TRKB / EML4-ALK v1 I1171N/D1203N” value in assay [3] (setting [5]) was “A (bin A for very high selectivity, ratio≥30-fold)”.

Consider `C[C@H]1Oc2cc(cnc2N)-c2c(c(C(=O)N(C)C)nn2CC2CC2)Oc2cccnc2-c2ccc(F)cc21` [Example 39, N,N-dimethyl-(R)-23-amino-3-(cyclopropylmethyl)-17-fluoro-20-methyl-7,21-dioxa-3,4,12,24-tetraazapentacyclo[20.3.1.0^2,6.0^8,13.0^14,19]hexacosa-1(25),2(6),4,8(13),9,11,14,16,18,22(26),23-undecaene-5-carboxamide], for which the pKi in assay [1] is > 7.30; in assay [2] it was ≤ 6.30. In addition, the results for the pIC50 in assay [3] and in assay [4] were 7.30 to 10.00 and < 6.30, respectively. For the same compound, the “ETV6-TRKB / EML4-ALK v1 I1171N/D1203N” value in assay [3] (setting [5]) is reported as “A (bin A for very high selectivity, ratio≥30-fold)”.

In the case of `C[C@H]1Oc2cc(cnc2N)-c2c(c(C(=O)N(C)C3CC3)nn2CC2CC2)Cc2cn(C)nc2-c2ccc(F)cc21` [Example 40, N-cyclopropyl-N-methyl-(R)-22-amino-3-(cyclopropylmethyl)-16-fluoro-10-methyl-19-methyl-20-oxa-3,4,10,11,23-pontaazapentacyclo[19.3.1.0^2,^6.0^8,^12.0^13,^18]pentacosa-1(24),2(6),4,8,11,13,15,17,21(25),22-decaene-5-carboxamide], the negative-log Ki (pKi) is > 7.30 in assay [1] and ≤ 6.30 in assay [2]. Also, the pIC50 in assay [3] was 6.30 to 7.30; in assay [4], < 6.30. In addition, the “ETV6-TRKB / EML4-ALK v1 I1171N/D1203N” value in assay [3] (setting [5]) is on record as “A (bin A for very high selectivity, ratio≥30-fold)”.

`C[C@H]1Oc2cc(cnc2N)-c2c(CC3CC3)nc(C(=O)N(C)C)n2Cc2cn(C)nc2-c2ccc(F)cc21` [Example 41, N,N-dimethyl-(R)-22-amino-3-(cyclopropylmethyl)-16-fluoro-10-methyl-19-methyl-20-oxa-4,6,10,11,23-pentaazapentacyclo[19.3.1.0^2,6.0^8,12.0^13,18]pentacosa-1(24),2,4,8,11,13,15,17,21(25),22-decaene-5-carboxamide]: the pKi in assay [1] was > 7.30; in assay [2], ≤ 6.30. Further, the pIC50 in assay [3] is 7.30 to 10.00; in assay [4], < 6.30. Moreover, the “ETV6-TRKB / EML4-ALK v1 I1171N/D1203N” value in assay [3] (setting [5]) is “A (bin A for very high selectivity, ratio≥30-fold)”.

In the case of `Cc1cc2n(n1)-c1ccc(F)cc1[C@@H](C)Oc1cc(cnc1N)-c1c(c(C(=O)N(C)C)nn1CC1CC1)C2` [Example 42, N,N-dimethyl-(R)-22-amino-3-(cyclopropylmethyl)-16-fluoro-10,19-dimethyl-20-oxa-3,4,11,12,23-pentaazapentacyclo[19.3.1.0^2,^6.0^8,^12.0^13,^18]pentacosa-1(24),2(6),4,8,10,13,15,17,21(25),22-decaene-5-carboxamide], the negative-log Ki (pKi) in assay [1] is > 7.30; in assay [2], ≤ 6.30. Further, the pIC50 in assay [3] is 6.30 to 7.30; in assay [4], < 6.30. In addition, in assay [3] (setting [5]), the “ETV6-TRKB / EML4-ALK v1 I1171N/D1203N” value is “A (bin A for very high selectivity, ratio≥30-fold)”.

Turning to `CCn1nc(C(=O)N(C)C)c2c1-c1cnc(N)c(c1)O[C@H](C)c1cc(F)ccc1-c1ncccc1C2` [Example 43, N,N-dimethyl-(R)-23-amino-3-ethyl-17-fluoro-20-methyl-21-oxa-3,4,12,24-tetraazapentacyclo[20.3.1.0^2,^6.0^8,^13.0^14,^19]hexacosa-1(25),2(6),4,8(13),9,11,14,16,18,22(26),23-undecaene-5-carboxamide], the negative-log Ki (pKi) in assay [1] and in assay [2] was > 7.30 throughout. The pIC50 in assay [3] and in assay [4] was 7.30 to 10.00 each time. In assay [3] (setting [5]), the “ETV6-TRKB / EML4-ALK v1 I1171N/D1203N” value is “B (bin B for high selectivity, ratio≥10-fold but<30)”. In addition, the “Selectivity for Ba/F3 EML4-ALK v1 I1171N-D1203N IC50 over Ba/F3 ETV6-TRKB IC50” value in assay [3] (TRKB selectivity, ratio of Ba/F3 IC50 values, Table 6 bins) is “BB (bin BB for the selectivity with the ratio≥10-fold but<30)”.

For the compound `CCOC(=O)c1nn(CC2CC2)c2c1Oc1cccnc1-c1ccc(F)cc1[C@@H](C)Oc1cc-2cnc1N` [Example 55, ethyl (20R)-23-amino-3-(cyclopropylmethyl)-17-fluoro-20-methyl-7,21-dioxa-3,4,12,24-tetraazapentacyclo[20.3.1.0^2,^6.0^8,^13.0^14,^19]hexacosa-1(25),2(6),4,8(13),9,11,14,16,18,22(26),23-undecaene-5-carboxylate], the negative-log Ki (pKi) in assay [1] is > 7.30; in assay [2] it was ≤ 6.30. In addition, the pIC50 in assay [3] is 6.30 to 7.30; in assay [4], < 6.30. Moreover, in assay [3] (setting [5]), the “ETV6-TRKB / EML4-ALK v1 I1171N/D1203N” value is reported as “B (bin B for high selectivity, ratio≥10-fold but<30)”.

Turning to `CSc1nn(CC2CC2)c2c1Cc1cn(C)nc1-c1ccc(F)cc1[C@@H](C)Oc1cc-2cnc1N` [Example 56, (R)-3-(cyclopropylmethyl)-16-fluoro-10-methyl-19-methyl-5-(methylthio)-20-oxa-3,4,10,11,23-pentaazapentacyclo[19.3.1.0^2,^6.0^8,^12.0^13,^18]pentacosa-1(25),2(6),4,8,11,13,15,17,21,23-decaen-22-ylamine], the results for the negative-log Ki (pKi) in assay [1] and in assay [2] were 6.30 to 7.30 and ≤ 6.30, respectively. The pIC50 in assay [3] is 6.30 to 7.30; in assay [4], < 6.30. Further, the “ETV6-TRKB / EML4-ALK v1 I1171N/D1203N” value in assay [3] (setting [5]) was “C (bin C for moderate selectivity, ratio≥1 but<10)”.
